{"source": "patent US6794414B1", "about": "“Method and compositions for treating diseases mediated by transglutaminase activity” (Yeda Research and Development Co. Ltd., priority 1998, dated 2004)", "molecules": {"B1": {"name": "guinea pig liver TGase (Sigma) (protein)", "chain": "AEDLILERCDLQLEVNGRDHRTADLCRERLVLRRGQPFWLTLHFEGRGYEAGVDTLTFNAVTGPDPSEEAGTMARFSLSSAVEGGTWSASAVDQQDSTVSLLLSTPADAPIGLYRLSLEASTGYQGSSFVLGHFILLYNPRCPADAVYMDSDQERQEYVLTQQGFIYQGSAKFINGIPWNFGQFEDGILDICLMLLDTNPKFLKNAGQDCSRRSRPVYVGRVVSAMVNCNDDQGVLQGRWDNNYSDGVSPMSWIGSVDILRRWKDYGCQRVKYGQCWVFAAVACTVLRCLGIPTRVVTNFNSAHDQNSNLLIEYFRNESGEIEGNKSEMIWNFHCWVESWMTRPDLEPGYEGWQALDPTPQEKSEGTYCCGPVPVRAIKEGHLNVKYDAPFVFAEVNADVVNWIRQKDGSLRKSINHLVVGLKISTKSVGRDEREDITHTYKYPEGSEEEREAFVRANHLNKLATKEEAQEETGVAMRIRVGQNMTMGSDFDIFAYITNGTAESHECQLLLCARIVSYNGVLGPVCSTNDLLNLTLDPFSENSIPLHILYEKYGDYLTESNLIKVRGLLIEPAANSYVLAERDIYLENPEIKIRVLGEPKQNRKLIAEVSLKNPLPVPLLGCIFTVEGAGLTKDQKSVEVPDPVEAGEQAKVRVDLLPTEVGLHKLVVNFECDKLKAVKGYRNVIIGPA"}}, "key": {"transglutaminase (TGase)": {"tested_on": "transglutaminase (TGase)", "assay": "TGase assay on human brain extracts ([3H]putrescine incorporation into casein)", "format": "biochemical", "details": "for TGase Activity + Casein + MDC / TGase Activity − Casein + MDC: 5 mM mono dansyl cadaverine, mean ± SEM, n = 2; for TGase Activity − Casein + MDC: no casein", "protocol": "Each assay contained 80 μg of brain extract, 4 mg/ml N,N-dimethylated casein, 50 mM Tris (pH 8.0), 5 mM CaCl2, 5 mM dithiothreitol (DTT), and 0.37 mM putrescine (1:5, ^3 [H]putrescine:putrescine) in 80 μL. The reaction was incubated at 37° C. for 30 minutes. After it was washed in 500 μL of 10% trichloro acetic acid (TCA) and washed again in 100% ethanol, the reaction was resuspended in 220 μL of 0.1 M NaOH. The resuspended pellet was added to 10 ml of scintillation liquid. […] For lymphoid cells, 10^6 cells were suspended in 0.5 ml buffer for five minutes, then centrifuged at 1200×g for ten minutes.\nApproximately 500 mg of brain tissue was homogenized in 2 ml of 10 mM Hepes (pH 7.4) containing 150 mM NaCl, 0.2 mg/ml leupeptin, 0.2 mg/ml aprotinin, 0.2 mg/ml pepstatin, and 0.5 mM phenylmethylsulfonyl fluoride (PMSF). The homogenate was centrifuged at 4° C. for ten minutes at 1000×g, and the supernatant was then centrifuged at 4° C. for ten minutes at 10,000×g to separate the cytoplasmic proteins. The remaining nuclear pellet was washed twice, for ten minutes each time, with the homogenization buffer at 4° C. at 1000×g, and then suspended in 1 ml of 10 mM Tris-Cl, 140 mM NaCl, 3 mM MgCl2, 0.5 mM PMSF, 0.1% sodium dodecyl sulfate (SDS), and 1% Nonylphenyl-polyethylene glycol (Nonidet P-40) (pH 7.4). The homogenate was spun at 4° C. for ten minutes at 8000×g. This procedure increased the level of beta-demn, a protein found more frequently in the cytoplasm than in the nucleus, enriching it 15.5-fold in the cytoplasm relative to the nucleus (Zhao et al, 1998).\nThis method for measuring brain transglutaminase was adapted from Folk and Cole (Folk et al, 1966). Casein serves as an excellent glutamine-containing protein substrate and […], while putrescine serves as the attacking nucleophile (Cooper et al, 1997). In the Huntington's Disease brain, in both the affected cortex andjin relatively unaffected areas like the cerebellum, which are affected in juvenile Huntington's Disease, transglutaminase activity was greater than in the corresponding areas of the control brain (HD cortex 14888±2864 cpm vs. normal cortex 6697±1410 cpm, mean ±1SEM, p<0.009 for HD cortex versus normal cortex; HD cerebellum 11221±2426 cpm vs. control cerebellum 2606±719 cpm, mean ±1SEM, p<0.001 for HD cerebellum versus control cerebellum.) Transglutaminase activity was also greater in extracts of nuclei from brains of Huntington's Disease patients than controls (HD brain cortical nuclear extract 6368±764 cpm vs. control brain cortical nuclear extract 2357±226 cpm, mean ±1SEM, Table 1)."}, "[1]": {"tested_on": "mice with experimental autoimmune encephalomyelitis", "assay": "Experimental autoimmune encephalomyelitis (EAE) in mice", "format": "in vivo", "details": "for Paralysis / paralytic disease in EAE: paraparetic mice with EAE", "protocol": "Paraparetic mice with experimental autoimmune encephalomyelitis were administered one dose of monodansyl cadaverine. […] Thus, diseases mediated in part by transglutaminase can be treated with transglutaminase inhibitors.\n0.05 mM monodansyl cadaverine was injected intraperitoneally into one of two groups of mice. The injection was given on day 13 after induction of disease, marked in the FIG. by an arrow.\nTo obtain the data shown in FIG. 6, experimental autoimmune encephalitis (EAE) was induced in ten week old SJL female mice. EAE was induced by an injection of 4 mg of mouse spinal cord homogenate in 1 ml of CFA. The injections were given intradermally in three places (two places in the flanks and one in the neck). On the same day, day 1, and on day 2, an intraperitoneal injection of pertussis toxin was given. The mice were treated with different concentrations of mono dansyl cadaverine on day 10. One group was injected twice on days 7 and 10 with […] mono dansyl cadaverine.\nThe grading score for EAE is 0, normal; 1, mild paraparesis; 2, paraparesis; 3, severe paraparesis; 4, quadriparesis; 5, dead."}, "[2]": {"molecular_target": "T1, httQ67 (135 amino acids), P42858", "T1 chain": "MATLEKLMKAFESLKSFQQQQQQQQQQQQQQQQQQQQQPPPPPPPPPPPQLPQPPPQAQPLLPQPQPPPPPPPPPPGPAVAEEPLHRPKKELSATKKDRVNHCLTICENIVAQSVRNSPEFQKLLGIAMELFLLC"}, "[3]": {"molecular_target": "T2, httQ41 (330 amino acids), P42858", "T2 chain": "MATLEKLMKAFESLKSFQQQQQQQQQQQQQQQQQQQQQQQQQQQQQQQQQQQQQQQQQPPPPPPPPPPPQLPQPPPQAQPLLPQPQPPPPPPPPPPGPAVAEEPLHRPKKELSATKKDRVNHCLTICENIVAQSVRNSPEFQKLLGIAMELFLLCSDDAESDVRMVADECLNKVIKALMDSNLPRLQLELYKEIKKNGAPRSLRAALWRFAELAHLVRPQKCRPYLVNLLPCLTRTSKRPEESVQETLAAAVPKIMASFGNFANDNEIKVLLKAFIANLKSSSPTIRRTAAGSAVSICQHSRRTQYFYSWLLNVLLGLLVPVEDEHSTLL"}, "[4]": {"molecular_target": "T3, httQ23 (90 amino acids), P42858", "T3 chain": "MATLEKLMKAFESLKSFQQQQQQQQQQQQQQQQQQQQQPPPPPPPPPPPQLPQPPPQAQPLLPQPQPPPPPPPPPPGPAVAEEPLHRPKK"}, "[5]": {"molecular_target": "T4, httQ41 (100 amino acids; elsewhere given as 110 amino acids), P42858", "T4 chain": "T3 chain"}, "[6]": {"molecular_target": "T5, httQ23 (310 amino acids), P42858", "T5 chain": "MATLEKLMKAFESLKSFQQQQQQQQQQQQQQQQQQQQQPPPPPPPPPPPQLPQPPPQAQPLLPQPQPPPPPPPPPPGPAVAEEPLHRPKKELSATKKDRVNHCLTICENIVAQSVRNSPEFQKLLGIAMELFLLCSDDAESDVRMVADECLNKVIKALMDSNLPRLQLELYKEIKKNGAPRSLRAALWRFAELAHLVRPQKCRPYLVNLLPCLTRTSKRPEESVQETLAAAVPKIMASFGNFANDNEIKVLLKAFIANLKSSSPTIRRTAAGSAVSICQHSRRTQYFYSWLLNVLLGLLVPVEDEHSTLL"}}, "note": "“Also recorded” adds a separate entry of the source."}
{"molecule": "CN(C)c1cccc2c(S(=O)(=O)NCCCCCN)cccc12", "note": "[monodansyl cadaverine]", "values": [{"measurement": "TGase Activity + Casein + MDC", "setting": "transglutaminase (TGase); Control Cerebellum extract", "value": "83 ± 14", "unit": "CPM"}, {"measurement": "TGase Activity − Casein + MDC", "setting": "transglutaminase (TGase); Control Cerebellum extract", "value": "117 ± 30", "unit": "CPM"}, {"measurement": "TGase Activity + Casein + MDC", "setting": "transglutaminase (TGase); Control Cortex extract", "value": "63 ± 10", "unit": "CPM"}, {"measurement": "TGase Activity − Casein + MDC", "setting": "transglutaminase (TGase); Control Cortex extract", "value": "151 ± 39", "unit": "CPM"}, {"measurement": "TGase Activity + Casein + MDC", "setting": "transglutaminase (TGase); HD Cerebellum extract", "value": "186 ± 57", "unit": "CPM"}, {"measurement": "TGase Activity − Casein + MDC", "setting": "transglutaminase (TGase); HD Cerebellum extract", "value": "58 ± 13", "unit": "CPM"}, {"measurement": "TGase Activity + Casein + MDC", "setting": "transglutaminase (TGase); HD Cortex extract", "value": "94 ± 18", "unit": "CPM"}, {"measurement": "TGase Activity − Casein + MDC", "setting": "transglutaminase (TGase); HD Cortex extract", "value": "81 ± 17", "unit": "CPM"}, {"measurement": "Inhibition of enzymatic (transglutaminase) activity of brain extract", "setting": "transglutaminase (TGase); cytosolic extract from HD and control brain, putrescine incorporation into casein", "value": "completely inhibited"}, {"measurement": "Effect on EAE (FIG. 5), p compared to control", "setting": "[1]; 0.05 mM injected intraperitoneally on day 13 after induction, following the second day of injection", "value": "significant influence (p=0.03 compared to control)"}, {"measurement": "Mononuclear cell infiltration in brains by hematoxilin-eosin staining", "setting": "[1]; FIG. 5 experiment, versus vehicle-injected controls", "value": "high levels of infiltration"}, {"measurement": "Side effects", "setting": "[1]; mice treated in vivo", "value": "no untoward side effects"}, {"measurement": "Lymphocytic infiltration / accumulation of inflammatory lymphocytes in brain", "setting": "[1]; mice with EAE, histology", "value": "prevented the accumulation of inflammatory lymphocytes in the brain; also recorded: reversed"}, {"measurement": "Paralysis / paralytic disease in EAE", "setting": "[1]", "value": "reversed paralytic disease; also recorded: Ongoing paralysis was reversed"}, {"measurement": "Disease status after treatment", "setting": "[1]; paraparetic mice with EAE treated in vivo", "value": "apparently free of disease; also recorded: free of disease after treatment"}, {"measurement": "Paralysis / paralytic disease in EAE", "setting": "[1]; listed as monodensyl cadaverine", "value": "can reverse ongoing paralysis"}]}
{"molecule": "B1", "values": [{"measurement": "aggregation into a high molecular weight polymer (35S gel)", "setting": "[2]", "value": "upon addition of transglutaminase, httQ23 (90 amino acids), httQ41 (100 amino acids), and httQ67 (135 amino acids) all aggregate into a high molecular weight polymer within 30 minutes"}, {"measurement": "amount of aggregation compared to httQ23 (densitometry)", "setting": "[2]", "value": "2-3 fold greater amount of aggregation of httQ41 and httQ67 compared to httQ23 at each concentration of transglutaminase"}, {"measurement": "aggregation into a high molecular weight polymer (35S gel)", "setting": "[3]", "value": "upon addition of transglutaminase, both httQ23 (310 amino acids) and httQ41 (330 amino acids) aggregate into a high molecular weight polymer within 30 minutes"}, {"measurement": "aggregation into a high molecular weight polymer (35S gel)", "setting": "[4]", "value": "upon addition of transglutaminase, httQ23 (90 amino acids), httQ41 (100 amino acids), and httQ67 (135 amino acids) all aggregate into a high molecular weight polymer within 30 minutes"}, {"measurement": "aggregation into a high molecular weight polymer (35S gel)", "setting": "[5]", "value": "upon addition of transglutaminase, httQ23 (90 amino acids), httQ41 (100 amino acids), and httQ67 (135 amino acids) all aggregate into a high molecular weight polymer within 30 minutes"}, {"measurement": "amount of aggregation compared to httQ23 (densitometry)", "setting": "[5]", "value": "2-3 fold greater amount of aggregation of httQ41 and httQ67 compared to httQ23 at each concentration of transglutaminase"}, {"measurement": "aggregation into a high molecular weight polymer (35S gel)", "setting": "[6]", "value": "upon addition of transglutaminase, both httQ23 (310 amino acids) and httQ41 (330 amino acids) aggregate into a high molecular weight polymer within 30 minutes"}]}
